This experiment concerns RPE cells. Briefly: Phagocytosis of RPE: FITC-ROS uptake, fluorescence intensity (total; ingestion with fluoro Quench dye). Format: cell-based. To be noted: for effect on the total phagocytosis of RPE: 0.1, 1, 10, 100 μg/ml, 24 hrs treatment in 2% FCS DMEM, then FITC-ROS 4 hrs, compared with 2% FCS; for effect on the phagocytosis of RPE (total and ingestion, FIGS. 8-15): summary based on FIGS. 8-15.

Procedure: 1×10^4 RPE cells are seeded in 96-well microplate per well, containing 5% FCS in DMEM after 48 hrs, and the medium is changed with 2% FCS in DMEM. Then different concentrations of DCMPbL6,7D2H2H3 are added respectively. After 24 hrs, 50 μl of 2×10^7 FITC-ROS/ml is added into each well. Four hours later, the unbounded FITC-ROS is washed out with PBS+2% sucrose. The emission wavelength is 485 nm and the detecting wavelength is 530 nm. The fluorescence intensity is detected by a 1420 Multilable counter (PE) measurement system. The detected fluorescence intensity represents the total phagocytosis. If the fluoro Quench dye is added, the detected fluorescence intensity represents the ingestion phagocytosis. *P<0.05, **P<0.02, ***P<0.01 and ****P<0.001 are obtained by comparing with phagocytosis of RPE treated with 2% FCS.
1×10^4 RPE cells are seeded in 96-well microplate per well, containing 5% FCS in DMEM after 48 hrs, and the medium is changed with 2% FCS in DMEM. Then different concentrations of DCMPbL6,7D2H2H3H2 are added respectively. After 24 hrs, 50 μl of 2×10^7 FITC-ROS/ml is added into each well. Four hours later, the unbounded FITC-ROS is washed out with PBS+2% sucrose. The emission wavelength is 485 nm and the detecting wavelength is 530 nm. The fluorescence intensity is detected by a 1420 Multilable counter (PE) measurement system. The detected fluorescence intensity represents the total phagocytosis. If the fluoro Quench dye is added, the detected fluorescence intensity represents the ingestion phagocytosis. *P<0.05, **P<0.02, ***P<0.01 and ****P<0.001 are obtained by comparing with phagocytosis of RPE treated with 2% FCS.
1×10^4 RPE cells are seeded in 96-well microplate per well, containing 5% FCS in DMEM after 48 hrs, and the medium is changed with 2% FCS in DMEM. Then different concentrations of DCMPbL6,7D2H2H3H3 are added respectively. After 24 hrs, 50 μl of 2×10^7 FITC-ROS/ml is added into each well. Four hours later, the unbounded FITC-ROS is washed out with PBS+2% sucrose. The emission wavelength is 485 nm and the detecting wavelength is 530 nm. The fluorescence intensity is detected by a 1420 Multilable counter (PE) measurement system. The detected fluorescence intensity represents the total phagocytosis. If the fluoro Quench dye is added, the detected fluorescence intensity represents the ingestion phagocytosis. *P<0.05, **P<0.02, ***P<0.01 and ****P<0.001 are obtained by comparing with phagocytosis of RPE treated with 2% FCS.
1×10^4 RPE cells are seeded in 96-well microplate per well, containing 5% FCS in DMEM after 48 hrs, and the medium is changed with 2% FCS in DMEM. Then different concentrations of DCMPbL6,7D2H2H3H4 are added respectively. After 24 hrs, 50 μl of 2×10^7 FITC-ROS/ml is added into each well.

As to `O=c1cc(-c2ccc(O)cc2)oc2c([C@@H]3OC[C@H](O)[C@H](O)[C@H]3O)c(O)c([C@@H]3OC[C@@H](O)[C@H](O)[C@H]3O)c(O)c12` [DCMPbL6,7D2H2H3H2, apigenin 6-C-β-D-Xylopyranosyl-8-C-α-L-arabinopyranoside], the “effect on the total phagocytosis of RPE” value was “can accelerate the phagocytosis of RPE”; the “effect on the phagocytosis of RPE (total and ingestion, FIGS. 8-15)” value (from here on “effect on the phagocytosis of RPE”) was “could accelerate the phagocytosis of RPE”.

For the molecule `O=c1cc(-c2ccc(O)cc2)oc2c([C@@H]3OC[C@@H](O)[C@@H](O)[C@@H]3O)c(O)c([C@@H]3OC[C@H](O)[C@H](O)[C@H]3O)c(O)c12` [DCMPbL6,7D2H2H3H4, apigenin 6-C-α-L-Arabinopyranosyl-8-C-β-D-arabinopyranoside], the “effect on the total phagocytosis of RPE” value is listed as “can accelerate the phagocytosis of RPE”; the “effect on the phagocytosis of RPE” value is “could accelerate the phagocytosis of RPE”.

`O=c1cc(-c2ccc(O)cc2)oc2c([C@@H]3OC[C@H](O)[C@H](O)[C@H]3O)c(O)c([C@@H]3OC[C@H](O)[C@H](O)[C@H]3O)c(O)c12` [DCMPbL6,7D2H2H3H3, apigenin 6,8-Di-C-α-L-arabinopyranoside]: the “effect on the total phagocytosis of RPE” value is “can accelerate the phagocytosis of RPE”; the “effect on the phagocytosis of RPE” value is given as “could accelerate the phagocytosis of RPE”.

Values taken from US8426371B2, “Biologically active extract from Dendrobium plant, use thereof and process for preparing the same” (National Yang-Ming University, priority 2007, dated 2013).
